# Experimental data taken from patent US5049372A, “Anticancer activities in a host by increasing blood and plasma adenosine 5'-triphosphate (ATP) levels” (priority 1988, dated 1991).
# Counter-ions that a name gives are not always drawn.
# How the values were obtained:
# tumor-bearing hosts = conditions: literature; cited from earlier work
# human subjects = conditions: single rapid injections of 40 mg, intravenous or intra-arterial; cited from earlier work
# CT26 tumors = assay: Growth inhibition of s.c. footpad CT26 tumors in CB6F1 mice by daily i.p. adenine nucleotides (Table 1); assay type: in vivo, mouse; conditions: 0.5 × 10^6 cells, 1 ml of 50 mM i.p. daily
# Method: (§1) The tumor cell lines employed were CT26, a mouse undifferentiated, aggressive colon carcinoma, and CAPAN-1, a well-differentiated human pancreatic adenocarcinoma. […] The cells are shown to be free of Mycoplasma contamination. Cells are cultured at 37° C. in a humidified atmosphere of 5% CO2 /95% air in MEM supplemented with antibiotics (100 units of penicillin per ml and 100 μg streptomycin per ml), L-glutamine (2 mM), non-essential amino acids (0.1 mM), sodium pyruvate (1 mM), and 10% fetal bovine serum.
# (§2) In the tests, females and males CB6F1 mice (a standard F1 hybrid of BALB/C and C57BL/6) obtained from Jackson Laboratories, Bar Harbor, Maine and athymic outbred NCr nu/nu mice (males and females) from the Department of Radiation Medicine, Massachusetts General Hospital, Boston, Mass. 02114 are used. All the mice are kept for at least two weeks before inoculation of the tumors and the start of treatment and are 7-9 weeks old (CB6F1) or 6-7 weeks old (athymic nu/nu) at the start of the procedure. Animals weigh 20-25 g (females) or 23-28 g (males), are housed 5-12 per cage, and have ad libitum access to food and water.
# (§3) Tumor cells are removed from subconfluent cultures by a mild trypsin-EDTA treatment, the cell pellet is washed once with MEM without serum and the cells are suspended at the desired cell numbers in PBS (phosphate-bufferedsaline, 8 g NaCl, 0.2 g KCl, 1.15 g Na2 HPO4.7H2 O, and 0.2 g KH2 PO4 per liter). Cell suspensions are shown to be at least 90% viable by trypan blue exclusion. Mice are injected subcutaneously in the right hind footpad with tumor cells suspended in 50 μl of PBS. The regular protocol (unless otherwise stated) consists of daily i.p. injections of 1 ml of 0.85% NaCl solution or 1 ml of 50 mM of AMP, ADP, or ATP in 0.85% NaCl (from stock solutions adjusted to pH 6.2) starting one day after tumor inoculation and given for ten consecutive days.
# (§4) Injections are administered with 30 gauge needles and the mice are lightly anesthetized with ether. The mice are weighed before the start of treatment and once a week during and after treatment. After the tumors become palpable, tumor sizes are determined every three days. The animals are sacrificed, tumors are excised and weighed before they reach 10% of the animals' weight.
# The growth inhibitory properties of adenine nucleotides against CT26 murine colon carcinoma, which are inoculated s.c. in the hind footpad of CB6F1 mice, are illustrated in Table 1 hereinbelow. […] No significant differences between males and females are observed either in the rate of tumor growth or in the tumor's response to adenine nucleotides treatment.
# [1] = Host toxicity (deaths, body weight) in treated mice; assay type: in vivo, mouse; conditions: i.p. injections of adenine nucleotides
# Method: as §3, §4
# tumor cells = conditions: low doses; prior application Ser. No. 397,897; cited from earlier work
# [2] = ATP levels in mouse blood (total cellular) and plasma after i.p. injection (Table 3); assay type: in vivo; conditions: CB6F1; for Blood ATP levels: total cellular
# Method: The mice are anesthetized with ether during the procedure. The plasma is prepared by immediate centrifugation of the blood in a Beckman microfuge (30 sec at 8000 xg). Blood (20 μl) or plasma (100 μl) aliquots are added to 1 ml of cold 7% trichloroacetic acid. […] The determination of ATP levels in the extracts is performed by bioluminometry (luciferinluciferase) using a Turner Designs Bioluminescence Photometer.
# CAPAN-1 xenografts = assay: Arrest of growth of CAPAN-1 xenografts in athymic nu/nu mice (Table 2); assay type: in vivo, human; conditions: experiment 5, 10 F, 0.5 × 10^5 cells, 9 weeks, 1 ml of 50 mM i.p.
# Method: as §1, §2, §3, §4
# The effects of AMP, ADP, and ATP on human tumor xenografts in nude mice were evaluated utilizing the pancreatic ductal adenocarcinoma CAPAN-1 (see Kyriazis AP, Kyriazis AA, Scarpelli DG, Fogh J, Rao SM, Lepera R., "Human Pancreatic Adenocarcinoma Line CAPAN-1 in Tissue Culture and the Nude Mouse", Am. J. Pathol., 1982, 106, 250-260).
# Treatment schedules consist of single daily i.p. injections for 10 consecutive days, starting one day after tumor inoculation. Tumor burden is relatively low (0.5-1×10^5 cells implanted) and tumor growth is slow (tumors became palpable 4-6 weeks after inoculation).
# [3] = system: blood plasma phosphodiesterase; conditions: anticoagulant; chelation of divalent cations; cited from earlier work
# [4] = experiment 3, 12 M per group, day 13
# [5] = experiment 4, 11 F per group, day 14
# [6] = 1 hour after i.p. 1 ml of 50 mM
# [7] = 5 hours after i.p. 1 ml of 50 mM
molecule,measurement,setting,value
insulin: the anabolic hormone insulin,Effect against rapid weight losses in tumor-bearing hosts,tumor-bearing hosts,effective against rapid weight losses in tumor-bearing hosts
same,Effect on growth of the tumor itself,tumor-bearing hosts,do not inhibit the growth of the tumor itself
"Nc1ncnc2c1ncn2[C@@H]1O[C@H](COP(=O)(O)OP(=O)(O)OP(=O)(O)O)[C@@H](O)[C@H]1O [sodium salt of ATP, reference compound]",Subjective and physiological changes in human subjects,human subjects,small subjective and physiological changes in human subjects
"Nc1ncnc2c1ncn2[C@@H]1O[C@H](COP(=O)(O)OP(=O)(O)O)[C@@H](O)[C@H]1O [ADP, adenosine 5'-diphosphate]",Tumor diameter,CT26 tumors; [4],1.3 ± 0.2 cm
same,Tumor weight,CT26 tumors; [4],0.73 ± 0.23 g
same,Tumor diameter,CT26 tumors; [5],1.1 ± 0.2 cm
same,Tumor weight,CT26 tumors; [5],0.86 ± 0.27 g
same,Deaths,[1],"Occasionally, an animal treated with ATP or ADP would die a few hours after injection"
same,Effect on growth of tumor cells in vitro (in words),tumor cells,marked inhibition of DNA synthesis and arrest of significant populations of cells in the S phase of their cycle
same,Plasma ATP levels,[2]; [6],2.66 ± 0.46 µM
same,Blood ATP levels,[2]; [6],1.28 ± 0.30 mM
same,Plasma ATP levels,[2]; [7],2.75 ± 0.87 µM
same,Blood ATP levels,[2]; [7],1.65 ± 0.41 mM
same,Arrested tumors/implanted tumors,CAPAN-1 xenografts,6/10
O=C(O)CC(O)(CC(=O)O)C(=O)O [Citrate],Inhibition of blood plasma phosphodiesterase activity,[3],inhibit the activity of a blood plasma phosphodiesterase
